Experimental findings from the supplement of paper PMC9103864 are described below.

The subject of experiment [1] is BMSC (primary human bone marrow mesenchymal stromal cells). In words: absolute EC50 for viability; higher = less sensitive.
The test system is the same in experiment [2]. In words: drug sensitivity score (DSS); higher = more sensitive.

With `CCn1c(C(=O)N(C2CC2)C2CC2)cc2c3c(ncn3C)c(Nc3cc(C)n(C)n3)nc21`, the “absolute EC50 for viability” value in experiment [1] is > 10 µM. In experiment [2], the drug sensitivity score was determined as 1.
Consider `NC(=O)N1CCC(CC(=O)N2CCC([C@H]3c4ncc(Br)cc4CCc4cc(Cl)cc(Br)c43)CC2)CC1` [Lonafarnib], for which, in experiment [1], the “absolute EC50 for viability” value is > 100 µM. In experiment [2], this compound gave a drug sensitivity score of 4.4.
Consider `O=C(c1ccc(C(=O)N2CCC(N3CCCC3)CC2)c(Nc2ccccc2)c1)N1CCC(N2CCCC2)CC1` [UNC1215], for which the “absolute EC50 for viability” value in experiment [1] was > 10 µM. The drug sensitivity score in experiment [2] is 0.
With `O=c1[nH]c(=O)n([C@H]2C[C@H](O)[C@@H](CO)O2)cc1C(F)(F)F` [Trifluridine], the “absolute EC50 for viability” value in experiment [1] is > 10 µM. This compound also came in with a drug sensitivity score in experiment [2] of 0.
With `NC(=O)c1cccc2cn(-c3ccc([C@@H]4CCCNC4)cc3)nc12` [Niraparib], the “absolute EC50 for viability” value in experiment [1] is > 10 µM. Also, the drug sensitivity score in experiment [2] was determined as 0.8.
As for `C[C@]12C=CC(=O)C=C1CC[C@@H]1[C@@H]2[C@@H](O)C[C@@]2(C)[C@H]1CC[C@]2(O)C(=O)CO` [Prednisolone], in experiment [1], the “absolute EC50 for viability” value was > 10 µM. The drug sensitivity score in experiment [2] stood at 0.
As to `COc1cc2nccc(Oc3ccc(NC(=O)NC4CC4)c(Cl)c3)c2cc1C(N)=O` [Lenvatinib], in experiment [1], the “absolute EC50 for viability” value is > 2.5 µM. Also, the drug sensitivity score in experiment [2] came out at 5.2.
Regarding `CC[C@]1(O)C[C@@H]2CN(CCc3c([nH]c4ccccc34)[C@@](C(=O)OC)(c3cc4c(cc3OC)N(C)[C@H]3[C@@](O)(C(=O)OC)[C@H](OC(C)=O)[C@]5(CC)C=CCN6CC[C@]43[C@@H]65)C2)C1` [Vinblastine], the “absolute EC50 for viability” value in experiment [1] was > 1 µM. In addition, in experiment [2], the drug sensitivity score stood at 1.9.
For `Cc1nc(=O)c2cc(CN(C)c3ccc(C(=O)N[C@@H](CCC(=O)O)C(=O)O)s3)ccc2[nH]1` [Raltitrexed], the “absolute EC50 for viability” value in experiment [1] was > 1 µM. In experiment [2], this compound yielded a drug sensitivity score of 0.
Regarding `CC(=O)c1cnc2ccc(-c3cc(Cl)c(O)c(Cl)c3)nc2c1N[C@H]1CC[C@H](CN(C)C)CC1` [OTS167], the “absolute EC50 for viability” value in experiment [1] is > 1 µM. In experiment [2], this compound displayed a drug sensitivity score of 2.9.
Taken in the same sequence, the figures for `CC(C)C[C@H](NC(=O)[C@@H](COC(C)(C)C)NC(=O)[C@H](Cc1ccc(O)cc1)NC(=O)[C@H](CO)NC(=O)[C@H](Cc1c[nH]c2ccccc12)NC(=O)[C@H](Cc1cnc[nH]1)NC(=O)[C@@H]1CCC(=O)N1)C(=O)N[C@@H](CCCNC(=N)N)C(=O)N1CCC[C@H]1C(=O)NNC(N)=O` [Goserelin] were > 10 µM and 0.
As to `CN[C@@H]1C[C@H]2O[C@@](C)([C@@H]1OC)n1c3ccccc3c3c4c(c5c6ccccc6n2c5c31)C(=O)N[C@H]4O` [UCN-01], the “absolute EC50 for viability” value in experiment [1] was determined as 0.643 µM. Also, the drug sensitivity score in experiment [2] was 13.3.
Taken in the same sequence, the figures for `CNc1nc(Nc2cn(C(C)(C)C#N)nc2C)ncc1C(F)(F)F` [GNE-0877] were > 1 µM and 0.
In the case of `CCN(CC)CCCC(C)Nc1ccnc2cc(Cl)ccc12` (configuration not stated) [Chloroquine], in experiment [1], the “absolute EC50 for viability” value worked out at 12.8 µM. The compound further gave a drug sensitivity score in experiment [2] of 10.3.
For `C=CCc1cccc(/C=N/NC(=O)CN2CCN(Cc3ccccc3)CC2)c1O` [PAC-1], the “absolute EC50 for viability” value in experiment [1] was > 10 µM. In experiment [2], this compound yielded a drug sensitivity score of 0.5.
Turning to `O=C(NC1CCNCC1)c1n[nH]cc1NC(=O)c1c(Cl)cccc1Cl` [AT7519], the “absolute EC50 for viability” value in experiment [1] is 0.462 µM. Besides, the drug sensitivity score in experiment [2] was 12.2.
Take `O=C1CN2Cc3c(ccc(Cl)c3Cl)N=C2N1` [Anagrelide]: the “absolute EC50 for viability” value in experiment [1] is > 10 µM. The same compound had a drug sensitivity score in experiment [2] of 0.
In the case of `CCCS(=O)(=O)Nc1ccc(F)c(C(=O)c2c[nH]c3ncc(-c4ccc(Cl)cc4)cc23)c1F` [Vemurafenib], the “absolute EC50 for viability” value in experiment [1] is > 10 µM. The compound also showed a drug sensitivity score in experiment [2] of 0.
For the compound `COc1ccc(-c2ccc3c(N4CCOC[C@@H]4C)nc(N4CCOC[C@@H]4C)nc3n2)cc1CO` [AZD8055], in experiment [1], the “absolute EC50 for viability” value is 0.207 µM. Moreover, the drug sensitivity score in experiment [2] came to 17.8.
On to `O=C(c1cc(Cc2n[nH]c(=O)c3ccccc23)ccc1F)N1CCN(C(=O)C2CC2)CC1` [Olaparib], for which the “absolute EC50 for viability” value in experiment [1] was > 10 µM. This compound also registered a drug sensitivity score in experiment [2] of 2.1.
For `O=C(O)CCCCC(CCSCc1ccccc1)SCc1ccccc1` (configuration not stated) [CPI-613], the “absolute EC50 for viability” value in experiment [1] was > 10 µM. In experiment [2], this compound yielded a drug sensitivity score of 0.
Regarding `Cc1sc2c(c1C)C(c1ccc(Cl)cc1)=N[C@@H](CC(=O)OC(C)(C)C)c1nnc(C)n1-2` [JQ1], the “absolute EC50 for viability” value in experiment [1] is > 10 µM. In experiment [2], the drug sensitivity score turned out to be 5.3.
Turning to `CCN(CC)CCCC(C)Nc1c2ccc(Cl)cc2nc2ccc(OC)cc12` (configuration not stated) [Mepacrine], the “absolute EC50 for viability” value in experiment [1] was 1.58 µM. This compound also gave a drug sensitivity score in experiment [2] of 17.7.
Taken in the same sequence, the figures for `CC(C)Oc1ccc(-c2nn([C@@H](C)c3oc4ccc(F)cc4c(=O)c3-c3cccc(F)c3)c3ncnc(N)c23)cc1F` [TGR-1202] were > 2.5 µM and 0.
Regarding `C/C(=C\c1csc(C)n1)[C@@H]1C[C@@H]2O[C@]2(C)CCC[C@H](C)[C@H](O)[C@@H](C)C(=O)C(C)(C)[C@@H](O)CC(=O)N1` [Ixabepilone], in experiment [1], the “absolute EC50 for viability” value is > 1 µM. This compound had a drug sensitivity score in experiment [2] of 0.5.
Consider `Nc1ncnc2c1c(-c1cccc(OCc3ccccc3)c1)cn2C1CC(CN2CCC2)C1` (configuration not stated) [NVP-AEW541], for which the “absolute EC50 for viability” value in experiment [1] turned out to be 6.04 µM. For the same compound, the drug sensitivity score in experiment [2] came to 4.5.
In the case of `O=c1[nH]c(=O)n([C@H]2C[C@H](O)[C@@H](CO)O2)cc1F` [Floxuridine], the “absolute EC50 for viability” value in experiment [1] was > 10 µM. In addition, the drug sensitivity score in experiment [2] turned out to be 0.
On to `Cc1[nH]c2ccccc2c1CCNCc1ccc(/C=C/C(=O)NO)cc1` [Panobinostat], for which the “absolute EC50 for viability” value in experiment [1] stood at 0.123 µM. The compound further showed a drug sensitivity score in experiment [2] of 10.2.
`CC(C)(C)C[C@@H]1N[C@@H](C(=O)N[C@H]2CC[C@H](O)CC2)[C@H](c2cccc(Cl)c2F)[C@]12C(=O)Nc1cc(Cl)ccc12`: the “absolute EC50 for viability” value in experiment [1] is 2.49 µM. The compound further displayed a drug sensitivity score in experiment [2] of 10.5.
Taken in the same sequence, the figures for `CN1CCN(C2CCC(n3cc(-c4ccc(Oc5ccccc5)cc4)c4c(N)ncnc43)CC2)CC1` (configuration not stated) were 1 µM and 11.1.
With `Nc1nc(NC2CC2)cc(-c2cccc(Cl)c2Cl)n1` [TH588], the “absolute EC50 for viability” value in experiment [1] was > 25 µM. The same compound displayed a drug sensitivity score in experiment [2] of 0.
On to `CNC(=O)c1ccc(N2C(=S)N(c3cnc(C#N)c(C(F)(F)F)c3)C(=O)C23CCC3)cc1F` [Apalutamide], for which the “absolute EC50 for viability” value in experiment [1] is > 10 µM. This compound also returned a drug sensitivity score in experiment [2] of 0.
Regarding `O=C(O)c1ccc(O)c2ncccc12` [IOX-1], in experiment [1], the “absolute EC50 for viability” value is > 100 µM. In experiment [2], this compound showed a drug sensitivity score of 0.6.
Take `Nc1cc(F)ccc1NC(=O)/C=C/c1cnn(C/C=C/c2ccccc2)c1` [RGFP966]: the “absolute EC50 for viability” value in experiment [1] was > 10 µM. Further, in experiment [2], the drug sensitivity score was found to be 0.6.
As to `c1cc(CN2CCCNCCNCCCNCC2)ccc1CN1CCCNCCNCCCNCC1` [Plerixafor], the “absolute EC50 for viability” value in experiment [1] is > 10 µM. Besides, the drug sensitivity score in experiment [2] worked out at 0.
For the compound `CNC(=O)c1ccccc1Nc1nc(Nc2ccc3c(c2OC)CCC[C@H](N2CCN(CCO)CC2)C3)ncc1Cl`, in experiment [1], the “absolute EC50 for viability” value was 1.17 µM. This compound returned a drug sensitivity score in experiment [2] of 6.6.
